The source of these data is US20080234306A1, “N-Oxides of 4,5-Epoxy-Morphinanium Analogs” (Progenics Pharmaceuticals, Inc., priority 2006, published 2008).

Series [1] relates to T1, μ-opioid receptor.
T1 construct: Responses to increasing concentrations of the compounds (% control response to DAMGO); other: compound 1.0E^−04 M; Responses to increasing concentrations of the compounds (% control response to DAMGO); other: compound 1.0E^−08 M; other: compound 3.0E^−08 M; Responses to increasing concentrations of the com
Nature of the series: Evaluation of agonist activity at the μ-opioid receptor, guinea pig ileum test. How it is done:
(§1) Evaluation for Agonist and Antagonist Activities at the […] Receptors in the Guinea Pig Ileum
(§2) Agonist/antagonist activity at the μ-opioid receptor was determined using the well known guinea pig ileum test. Briefly, an a section of ileum was placed in a stabilized solution in a tensed state. Transducers were used to measure changes in tension upon electrical stimulation to the tissue before and after challenge with a potential agonist/antagonist Using a control, constriction inhibition, and constriction inhibition cancellation, may be measured.

The target of series [2] is T2, μ-opioid receptor (Cavia porcellus, UniProt A0ACM8Q262). Kind of series: Evaluation of antagonist activity at the μ-opioid receptor, guinea pig ileum test (tissue model, responses to DAMGO). The settings on record: for IC50: tissue model for antagonist activity. Here is the method: as §1, §2
T2 sequence (A0ACM8Q262 1-400): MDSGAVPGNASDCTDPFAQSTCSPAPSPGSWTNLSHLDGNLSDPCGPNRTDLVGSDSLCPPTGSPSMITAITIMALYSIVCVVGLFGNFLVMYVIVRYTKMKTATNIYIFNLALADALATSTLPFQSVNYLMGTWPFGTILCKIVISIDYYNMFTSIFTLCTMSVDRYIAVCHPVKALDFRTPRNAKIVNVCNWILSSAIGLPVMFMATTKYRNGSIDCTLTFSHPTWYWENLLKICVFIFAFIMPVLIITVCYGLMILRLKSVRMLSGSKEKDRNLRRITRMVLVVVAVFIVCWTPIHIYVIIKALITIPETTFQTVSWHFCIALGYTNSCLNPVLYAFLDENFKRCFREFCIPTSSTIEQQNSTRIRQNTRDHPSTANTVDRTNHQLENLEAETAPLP
For the next series, the target named is human μ-receptor (Homo sapiens, UniProt P35372). Nature of the series: human μ-receptor model (binding, Ki). The settings on record: read-out: % Inhibition at 1 × 10^−5 M.
Sequence of human μ-receptor (P35372 whole entry): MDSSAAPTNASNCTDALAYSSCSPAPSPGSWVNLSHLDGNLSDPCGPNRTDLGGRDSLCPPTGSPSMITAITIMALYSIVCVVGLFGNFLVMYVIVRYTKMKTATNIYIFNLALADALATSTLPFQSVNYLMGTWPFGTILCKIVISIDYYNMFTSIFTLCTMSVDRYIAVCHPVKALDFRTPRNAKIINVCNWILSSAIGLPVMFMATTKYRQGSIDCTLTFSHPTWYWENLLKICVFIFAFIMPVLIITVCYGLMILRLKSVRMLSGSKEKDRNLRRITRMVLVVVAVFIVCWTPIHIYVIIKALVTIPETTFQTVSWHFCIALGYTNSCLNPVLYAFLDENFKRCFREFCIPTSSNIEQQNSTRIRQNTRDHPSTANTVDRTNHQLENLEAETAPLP
The target of series [3] is T2, μ-opioid receptor. Kind of series: Evaluation of agonist activity at the μ-opioid receptor, guinea pig ileum test. How it is done: as §1, §2
Where [4] appears, read: guinea pig, read-out: Responses to DAMGO (1.0E−07 M) in the presence of increasing concentrations of the compounds (% control response).

`[O-][N+]1(CC2CC2)CC[C@]23c4c5ccc(O)c4O[C@H]2[C@@H](O)CC[C@@]3(OCCCc2ccccc2)[C@H]1C5` (stereo partly drawn) gave a melting point of 155 to 159 °C.

The compound `O=C1CC[C@H]2[C@H]3Cc4ccc(O)c5c4[C@@]2(CC[N+]3([O-])CC2CC2)[C@H]1O5` (stereo partly drawn) displayed a melting point of 209 to 211 °C.

`C=C1CC[C@@]2(OCCCc3ccccc3)[C@H]3Cc4ccc(O)c5c4[C@@]2(CC[N+]3([O-])CC2CC2)[C@H]1O5.O=C(O)C(F)(F)F` (stereo partly drawn): the melting point is 182 °C (dec.).

Take `O=C1CC[C@@]2(O)[C@H]3Cc4ccc(O)c5c4[C@@]2(CC[N+]3([O-])CC2CC2)[C@H]1O5` (stereo partly drawn) [Compound C0001, (S)-17-Cyclopropylmethyl-4,5α-epoxy-3,14-hydroxy-morphinan-6-one N-oxide]: the “Responses to increasing concentrations of the compounds (% control response to DAMGO)” value in the series on μ-opioid receptor [1] (compound 1.0E^−04 M), in the series on μ-opioid receptor [1] (compound 1.0E^−05 M), in the series with μ-opioid receptor [1] (compound 1.0E^−06 M), with μ-opioid receptor [1] (compound 1.0E^−07 M), in the series on μ-opioid receptor [1] (compound 1.0E^−08 M) and with μ-opioid receptor [1] (compound 3.0E^−05 M) was 0% throughout. Also, the “Responses to increasing concentrations of the compounds (% control response to DAMGO)” value in the series on μ-opioid receptor [1] (compound 3.0E^−06 M), in the series with μ-opioid receptor [1] (compound 3.0E^−07 M) and in the series with μ-opioid receptor [1] (compound 3.0E^−08 M) was 0% throughout. Moreover, in the series with μ-opioid receptor [1] (concentration of 1.0×10^−4 M, versus DAMGO), the agonistic activity entry is given as “No agonistic activity”. The remaining activity at 0.01 µM at μ-opioid receptor [2] (setting [4]) came out at 100%. Besides, the remaining activity at 0.03 µM at μ-opioid receptor [2] (setting [4]) turned out to be 91%. The remaining activity at 0.1 µM on μ-opioid receptor [2] (setting [4]) was 80%. Further, the remaining activity at 0.3 µM on μ-opioid receptor [2] (setting [4]) turned out to be 62%. On μ-opioid receptor [2] (setting [4]), the remaining activity at 1 µM was found to be 36%. For the same compound, the remaining activity at 3 µM at μ-opioid receptor [2] (setting [4]) was 23%. The remaining activity at 10 µM on μ-opioid receptor [2] (setting [4]) turned out to be 16%. In addition, the remaining activity at 30 µM on μ-opioid receptor [2] (setting [4]) was 16%. The remaining activity at 100 µM on μ-opioid receptor [2] (setting [4]) was determined as 16%. Further, the IC50 at μ-opioid receptor [2] worked out at 560 nM. The inhibition at 10 µM at human μ-receptor came out at 96%.

In turn, `C=C1CC[C@@]2(O)[C@H]3Cc4ccc(O)c5c4[C@@]2(CC[N+]3([O-])CC2CC2)[C@H]1O5` (stereo partly drawn) [Compound C0002] showed an IC50 on μ-opioid receptor [2] above 100000 nM. Besides, the inhibition at 10 µM at human μ-receptor came out at 94%.

Regarding `Oc1ccc2c3c1O[C@H]1[C@@H](O)CC[C@@]4(O)[C@@H](C2)[N+](O)(CC2CC2)CC[C@]314` (stereo partly drawn) [Compound C0003, (S)-17-Cyclopropylmethyl-4,5α-epoxy-morphinan-3,6α,14-triol N-oxide], the inhibition at 10 µM on human μ-receptor is 100%.

Regarding `[O-][N+]1(CC2CC2)CC[C@]23c4c5ccc(O)c4O[C@H]2[C@@H](Cn2ccnc2)CC[C@@]3(O)[C@H]1C5` (stereo partly drawn) [Compound C0018, 17-Cyclopropylmethyl-4,5α-epoxy-3,14-dihydroxy-6α-(1H-imidazol-1-yl)methyl morphinan N-oxide], the inhibition at 10 µM at human μ-receptor was 89%.

In the case of `[O-][N+]1(CC2CC2)CC[C@]23c4c5ccc(O)c4O[C@H]2[C@@H](CO)CC[C@@]3(O)[C@H]1C5` (stereo partly drawn) [Compound C0021, 17-cyclopropylmethyl-4,5α-epoxy-3,14-dihydroxy-6α-hydroxymethyl morphinan N-oxide], the inhibition at 10 µM on human μ-receptor was found to be 95%.

In the case of `[O-][N+]1(CC2CC2)CC[C@]23c4c5ccc(O)c4O[C@H]2CCC[C@@]3(O)[C@H]1C5` (stereo partly drawn) [Compound C0023, 17-Cyclopropylmethyl-4,5α-epoxy-3,14-dihydroxymorphinan-N-oxide], the inhibition at 10 µM on human μ-receptor worked out at 101%.

For the compound `CC1C[C@@]2(O)[C@H]3Cc4ccc(O)c5c4[C@@]2(CC[N+]3([O-])CC2CC2)[C@@H](O5)C1=O` (stereo partly drawn) [Compound C0030, (S)-17-Cyclopropylmethyl-4,5α-epoxy-3,14-dihydroxy-7-methyl-morphinan-6-one N-oxide], the inhibition at 10 µM on human μ-receptor turned out to be 67%.

With `C[C@@H](NC(=O)[C@@H](N)Cc1ccc(O)cc1)C(=O)NCC(=O)N(C)[C@@H](Cc1ccccc1)C(=O)NCCO` [DAMGO, D-Ala^2,N-Me-Phe^4,Gly^5-ol-enkephalin, reference compound], the “Response + Naloxone (1.0E^−07 M)” value on μ-opioid receptor [3] (after highest compound concentration, + naloxone 1.0E^−07 M) is recorded as 4%. Moreover, the activation at 1 µM at μ-opioid receptor [3] (compound 1.0E^−06 M, read-out: Responses to increasing concentrations of the compounds (% control response to DAMGO)) worked out at 103%. In addition, on μ-opioid receptor [3] (compound 1.0E^−07 M, read-out: Responses to increasing concentrations of the compounds (% control response to DAMGO)), the activation at 0.1 µM was determined as 96%. Moreover, the activation at 0.01 µM on μ-opioid receptor [3] (compound 1.0E^−08 M, read-out: Responses to increasing concentrations of the compounds (% control response to DAMGO)) is 57%. For the same compound, the activation at 0.001 µM on μ-opioid receptor [3] (compound 1.0E−09 M, read-out: Responses to increasing concentrations of the compounds (% control response to DAMGO)) turned out to be 9%.
